From US8637684B2, “Tautomycetin and tautomycetin analog biosynthesis” (Wisconsin Alumni Research Foundation, priority 2010, dated 2014)

Experiments:
[1] = target: T1, SHP2 (Homo sapiens, UniProt Q06124); experiment: PTP activity assay with pNPP as substrate: SHP2; assay type: biochemical
T1 construct: The expression and purification of the SHP2 catalytic domain (residues 262-528) were described previously; made in house
T1 sequence (Q06124 262-528): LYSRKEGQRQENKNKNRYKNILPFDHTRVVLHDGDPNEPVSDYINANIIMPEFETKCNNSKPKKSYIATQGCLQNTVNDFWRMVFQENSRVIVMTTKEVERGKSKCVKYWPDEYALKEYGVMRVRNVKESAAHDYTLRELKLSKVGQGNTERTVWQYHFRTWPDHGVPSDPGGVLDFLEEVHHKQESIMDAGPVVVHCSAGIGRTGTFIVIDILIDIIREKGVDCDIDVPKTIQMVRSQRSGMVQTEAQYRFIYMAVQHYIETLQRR
Experimental: (§1) The PTP activity was assayed using pNPP as a substrate at 25° C. in 50 mM 3,3-dimethylglutarate buffer, pH 7.0, containing 1 mM EDTA with an ionic strength of 0.15 M adjusted by NaCl. TTM, TTN and the engineered analogs were analyzed for inhibition of a panel of PTPs at 10 μM compound concentration. For each enzyme screened, test compounds were diluted to 20 μM in 100 μL and combined with 50 μL pNPP at a concentration of 4×Km. The reaction was initiated by the addition of 50 μL of 4× concentrated enzyme and pNPP was allowed to convert to the product p-nitrophenol. The reaction was quenched by the addition of 50 μL of 5N NaOH. Nonenzymatic hydrolysis of pNPP was corrected by measuring the control without the addition of enzyme. Production of p-nitrophenol was monitored by a Spectra MAX385 microplate spectrophotometer (Molecular Devices) at 405 nm using a molar extinction coefficient of 18,000 M^−1 cm^−1. IC50 values were calculated by fitting the absorbance at 405 nm versus inhibitor concentration to the following equation: AI/A0=IC50/(IC50+[I]) where AI is the absorbance at 405 nm of the sample in the presence of inhibitor; Ao is the absorbance at 405 nm in the absence of inhibitor; and [I] is the concentration of the inhibitor.
The effect of the compounds on PTP-catalyzed hydrolysis of p-nitrophenyl phosphate (pNPP) was assessed at pH 7 and 25° C. Members of the PTP superfamily that were included in the screen included the cytosolic PTPs, PTP1B, SHP1, SHP2, Lyp, HePTP, Meg2, and FAP1, the receptor-like PTPs, CD45, LAR, and PTPα, the dual specificity phosphatases VHR, VHX, and Cdc14, and the low molecular weight PTP.
Therefore, all of the IC50 values reported in this study directly reflect the true affinity of the compound for the enzymes tested.

[2] = target: SHP1 (Homo sapiens, UniProt P29350); experiment: PTP activity assay with pNPP as substrate: SHP1; assay type: biochemical; conditions: pNPP as substrate at Km, pH 7.0, 25° C., I = 0.15 M
Chain of SHP1 (P29350 whole entry): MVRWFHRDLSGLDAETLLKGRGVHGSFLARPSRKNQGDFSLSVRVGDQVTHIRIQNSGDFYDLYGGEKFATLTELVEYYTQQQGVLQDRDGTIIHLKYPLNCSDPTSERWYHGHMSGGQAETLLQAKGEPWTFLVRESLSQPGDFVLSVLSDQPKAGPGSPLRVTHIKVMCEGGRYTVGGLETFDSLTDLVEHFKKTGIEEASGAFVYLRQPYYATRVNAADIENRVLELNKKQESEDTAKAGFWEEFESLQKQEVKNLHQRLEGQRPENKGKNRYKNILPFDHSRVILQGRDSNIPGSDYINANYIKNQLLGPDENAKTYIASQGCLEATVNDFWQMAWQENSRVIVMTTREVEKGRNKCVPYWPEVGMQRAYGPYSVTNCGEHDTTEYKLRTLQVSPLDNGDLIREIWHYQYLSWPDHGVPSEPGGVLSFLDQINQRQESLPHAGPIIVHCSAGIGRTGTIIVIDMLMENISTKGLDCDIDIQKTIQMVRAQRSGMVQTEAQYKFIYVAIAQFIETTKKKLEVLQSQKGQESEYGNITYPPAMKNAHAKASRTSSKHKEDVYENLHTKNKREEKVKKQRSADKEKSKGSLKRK
Experimental: as §1

[3] = target: T2, PTP1B (Homo sapiens, UniProt P18031); experiment: PTP activity assay with pNPP as substrate: PTP1B; assay type: biochemical; conditions: pNPP as substrate at Km, pH 7.0, 25° C., I = 0.15 M
T2 sequence (P18031 1-435): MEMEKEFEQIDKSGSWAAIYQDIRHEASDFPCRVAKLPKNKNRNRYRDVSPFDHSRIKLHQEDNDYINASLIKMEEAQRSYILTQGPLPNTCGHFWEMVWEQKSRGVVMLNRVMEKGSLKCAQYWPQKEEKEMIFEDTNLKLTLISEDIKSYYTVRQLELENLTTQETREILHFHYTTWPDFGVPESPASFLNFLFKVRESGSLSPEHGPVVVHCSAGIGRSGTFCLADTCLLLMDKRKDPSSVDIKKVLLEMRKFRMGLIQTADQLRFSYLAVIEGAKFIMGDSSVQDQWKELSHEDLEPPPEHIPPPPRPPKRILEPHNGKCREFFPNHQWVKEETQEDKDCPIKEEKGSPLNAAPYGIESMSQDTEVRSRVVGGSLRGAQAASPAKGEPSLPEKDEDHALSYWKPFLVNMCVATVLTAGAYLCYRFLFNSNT
Experimental: as §1

[4] = target: T3, CD45 (Homo sapiens, UniProt P08575); experiment: PTP activity assay with pNPP as substrate: CD45; assay type: biochemical; conditions: pNPP as substrate at Km, pH 7.0, 25° C., I = 0.15 M
T3 sequence (P08575 26-1306): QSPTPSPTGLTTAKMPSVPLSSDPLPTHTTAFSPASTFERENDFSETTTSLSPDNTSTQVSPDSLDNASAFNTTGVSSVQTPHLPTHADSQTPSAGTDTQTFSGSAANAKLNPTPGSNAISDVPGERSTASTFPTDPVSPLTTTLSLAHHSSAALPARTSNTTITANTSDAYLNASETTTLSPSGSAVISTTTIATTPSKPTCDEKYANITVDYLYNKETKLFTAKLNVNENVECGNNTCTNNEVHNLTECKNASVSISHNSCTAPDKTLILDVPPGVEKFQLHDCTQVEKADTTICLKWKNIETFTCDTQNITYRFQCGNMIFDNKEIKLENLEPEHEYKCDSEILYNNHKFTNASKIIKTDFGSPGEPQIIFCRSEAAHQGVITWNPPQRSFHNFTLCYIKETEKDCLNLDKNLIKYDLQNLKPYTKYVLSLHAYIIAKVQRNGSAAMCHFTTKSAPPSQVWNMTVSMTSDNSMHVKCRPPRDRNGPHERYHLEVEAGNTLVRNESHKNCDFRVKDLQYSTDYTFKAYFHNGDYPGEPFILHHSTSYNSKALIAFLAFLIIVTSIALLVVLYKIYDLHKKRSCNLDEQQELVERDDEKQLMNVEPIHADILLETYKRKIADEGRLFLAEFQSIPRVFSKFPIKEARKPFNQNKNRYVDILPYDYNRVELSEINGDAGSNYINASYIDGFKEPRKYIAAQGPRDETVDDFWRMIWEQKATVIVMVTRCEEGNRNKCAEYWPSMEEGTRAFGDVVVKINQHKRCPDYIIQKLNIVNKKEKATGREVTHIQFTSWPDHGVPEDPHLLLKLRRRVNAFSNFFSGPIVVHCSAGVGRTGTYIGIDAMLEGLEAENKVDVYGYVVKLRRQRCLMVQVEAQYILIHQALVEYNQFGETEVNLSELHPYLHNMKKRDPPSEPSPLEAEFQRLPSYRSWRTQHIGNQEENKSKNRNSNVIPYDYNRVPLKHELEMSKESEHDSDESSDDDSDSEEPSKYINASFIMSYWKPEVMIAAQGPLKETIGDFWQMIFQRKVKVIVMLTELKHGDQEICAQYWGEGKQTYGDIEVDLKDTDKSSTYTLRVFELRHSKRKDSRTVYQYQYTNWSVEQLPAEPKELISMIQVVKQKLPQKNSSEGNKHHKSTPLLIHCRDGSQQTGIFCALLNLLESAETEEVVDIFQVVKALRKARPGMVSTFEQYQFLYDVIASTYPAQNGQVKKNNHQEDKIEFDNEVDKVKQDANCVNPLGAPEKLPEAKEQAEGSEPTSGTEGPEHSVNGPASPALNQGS
Experimental: as §1

[5] = target: VHR (Homo sapiens, UniProt P51452); experiment: PTP activity assay with pNPP as substrate: VHR; assay type: biochemical; conditions: pNPP as substrate at Km, pH 7.0, 25° C., I = 0.15 M
Chain of VHR (P51452 whole entry, species assumed): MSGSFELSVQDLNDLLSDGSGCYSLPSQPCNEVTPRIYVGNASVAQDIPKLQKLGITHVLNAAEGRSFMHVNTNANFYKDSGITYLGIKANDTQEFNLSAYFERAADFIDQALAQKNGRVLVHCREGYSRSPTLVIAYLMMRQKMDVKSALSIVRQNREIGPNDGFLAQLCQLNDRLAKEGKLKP
Experimental: as §1

[6] = system: TCR-mediated tyrosine phosphorylation in Jurkat T cells; experiment: Anti-CD3 (TCR) induced tyrosine phosphorylation in Jurkat T cells, immunoblot; assay type: cell-based; conditions: 2-4 μM, 2 hours pretreatment, anti-CD3 stimulation
Experimental: Jurkat T cells were grown at 37° C. under an atmosphere of 5% CO2 in RPMI medium 1640 supplemented with 10% FBS. Cells were pretreated with different concentrations of TTN, TTN D-1, or TTM for 2 hours and stimulated with […] anti-CD3 antibody (OKT3; eBioscience) for 5 min and 30 min, respectively. Subsequently, cells were spinned down at 2000 rpm in 4° C., and cell pellets were lysed in 50 mM Tris-HCl (pH 7.5), 150 mM NaCl, 10% glycerol, 1% NP-40, 50 mM NaF, 10 mM pyrophosphate, 5 mM idoacetate, 1 mM sodium orthovanadate, and the protease inhibitor mixture. After 30 min lysing on ice, the cell lysates were centrifuged at 13,200 rpm for 15 min. Total cellular proteins were separated by SDS/PAGE and transferred electrophoretically to nitrocellulose membrane, which was immunoblotted by appropriate antibodies followed by incubation with HRP-conjugated secondary antibodies. Blots were developed using Pierce Pico ECL reagent (Thermo) according to the manufacturer's instructions.
TTN induces immunosuppression by suppression of TCR-mediated tyrosine phosphorylation and ERK1/2 activity in T cells (Shim et al., 2002). However, the mechanism of action for TTN's ability to block TCR signaling remains undefined. […]

tautomycetin [TTN] was tested, and the “preference for SHP2 over all PTPs examined” value ([1]; from IC50 values) was no less than 5 fold, the IC50 ([1]; pNPP as substrate at Km, pH 7.0, 25° C., I = 0.15 M) was 2900 nM and the IC50 [2] was 14.6 µM. For the same substance, the IC50 [3] was 40 µM, the IC50 [4] was greater than 50 µM and the IC50 [5] was greater than 50 µM. For the same substance, the “effect on TCR-mediated tyrosine phosphorylation” value [6] was “efficiently attenuated”.
